Here are results for 19 molecules from patent US11780826B2 (Amgen Inc., priority 2017, dated 2023).

The subject of the assay is Bovine cardiac myofibrils. Briefly: In vitro model of dose-dependent myofibril ATPase modulation (AC1.4, pyruvate kinase/lactate dehydrogenase-coupled ATPase assay at pCa25). The format is biochemical. The note with it: concentration at which ATPase activity was 1.4-fold higher than the bottom of the dose curve, mean of a minimum of two independent tests. Put shortly:
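Detergent-skinned bovine cardiac myofibrils (typically 0.25-1.0 mg/ml) in Ca-buffered (EGTA/CaCl2) PK/LDH-coupled ATPase assay: 12 mM K-PIPES pH 6.80, 2 mM MgCl2, 1 mM ATP, 1 mM DTT, 0.5 mM NADH, 1.5 mM PEP. Hydrolysis followed at 340 nm; dose response fit to 4-parameter equation; AC1.4 is mean of ≥2 tests.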

`O=C(NCc1ccc(C(F)(F)F)cc1)[C@H]1CCCN1C(=O)[C@H]1CCCN(S(=O)(=O)N2CCC23CCC3)C1` [Example 800, 1-(((3S)-1-(1-azaspiro[3.3]hept-1-ylsulfonyl)-3-piperidinyl)carbonyl)-N-(4-(trifluoromethyl)benzyl)-D-prolinamide]: the AC1.4 turned out to be 9.537 µM.
With `N#CC1CN(S(=O)(=O)N2CCC[C@H](C(=O)N3[C@@H]4C[C@@H]4C[C@H]3C(=O)NCc3ccc(C(F)(F)F)cc3)C2)C1` [Example 801, (1R,3S,5R)-2-(((3S)-1-((3-cyano-1-azetidinyl)sulfonyl)-3-piperidinyl)carbonyl)-N-(4-(trifluoromethyl)benzyl)-2-azabicyclo[3.1.0]hexane-3-carboxamide], the AC1.4 worked out at 9.578 µM.
In the case of `CN(C)S(=O)(=O)c1cccc(C(=O)N2CCC[C@@H]2C(=O)N[C@H](c2ccc(C(F)(F)F)cc2F)C2CC2)c1` [Example 802, N-((S)-cyclopropyl(2-fluoro-4-(trifluoromethyl)phenyl)methyl)-1-(3-(dimethylsulfamoyl)benzoyl)-D-prolinamide] it was 9.6005 µM; in that of `C[C@H](NC(=O)[C@H]1CCCN1C(=O)[C@H]1CCCN(S(=O)(=O)N2CC(C#N)C2)C1)c1ccc(Cl)cc1` [Example 803, N-((1S)-1-(4-chlorophenyl)ethyl)-1-(((3S)-1-((3-cyano-1-azetidinyl)sulfonyl)-3-piperidinyl)carbonyl)-D-prolinamide], 9.622 µM.
In the case of `CCC(NC(=O)[C@H]1CCCN1C(=O)[C@H]1CCCN(S(=O)(=O)N2CC(C#N)C2)C1)c1ccccc1OC` (stereo partly drawn) [Example 804, (2R)-1-((S)-1-((3-cyanoazetidin-1-yl)sulfonyl)piperidine-3-carbonyl)-N-(1-(2-methoxyphenyl)propyl)pyrrolidine-2-carboxamide], the AC1.4 was 9.7525 µM.
In the case of `CS(=O)(=O)c1cc(C(=O)N2CCC[C@@H]2C(=O)N[C@@H](c2ccc(C(F)(F)F)cc2F)C2CC2)ccc1N` [Example 805, 1-(4-amino-3-(methylsulfonyl)benzoyl)-N-((R)-cyclopropyl(2-fluoro-4-(trifluoromethyl)phenyl)methyl)-D-prolinamide], the AC1.4 is 9.817 µM.
In the case of `CC(=O)N1CC(NS(=O)(=O)N2CCC[C@H](C(=O)N3CCC[C@@H]3C(=O)NCc3ccc(C(F)(F)F)cc3)C2)C1` [Example 806, 1-(((3S)-1-((l-acetyl-3-azetidinyl)sulfamoyl)-3-piperidinyl)carbonyl)-N-(4-(trifluoromethyl)benzyl)-D-prolinamide] it was 10 µM; in that of `CC(C)[C@@H](NC(=O)[C@H]1CCCN1C(=O)c1cccc(S(C)(=O)=O)c1)c1ccc(C(F)(F)F)cc1F` [Example 807, N-((1R)-1-(2-fluoro-4-(trifluoromethyl)phenyl)-2-methylpropyl)-1-(3-(methylsulfonyl)benzoyl)-D-prolinamide], 4.609 µM.
For `COc1ccc(S(C)(=O)=O)cc1C(=O)N1[C@@H](C(=O)N[C@@H](c2ccc(C(F)(F)F)cc2)C2COC2)C[C@H]2C[C@H]21` [Example 808, (1R,3R,5R)-2-(2-methoxy-5-(methylsulfonyl)benzoyl)-N-((R)-3-oxetanyl(4-(trifluoromethyl)phenyl)methyl)-2-azabicyclo[3.1.0]hexane-3-carboxamide], the AC1.4 was determined as 4.6765 µM.
To `CS(=O)(=O)c1cncc(C(=O)N2CCC[C@@H]2C(=O)NC(c2ccc(C(F)(F)F)cc2F)C2CC2)c1` (stereo partly drawn) [Example 809, (2R)-N-(cyclopropyl(2-fluoro-4-(trifluoromethyl)phenyl)methyl)-1-(5-(methylsulfonyl)nicotinoyl)pyrrolidine-2-carboxamide] belongs 4.951 µM; to `Cc1ccc([C@H](NC(=O)[C@H]2C[C@H]3C[C@H]3N2C(=O)c2cccc(S(C)(=O)=O)c2)C2CC2)cc1F` [Example 810, (1R,3R,5R)-N-((R)-cyclopropyl(3-fluoro-4-methylphenyl)methyl)-2-(3-(methylsulfonyl)benzoyl)-2-azabicyclo[3.1.0]hexane-3-carboxamide], 5.084 µM.
Turning to `N#CC1CN(S(=O)(=O)N2CCC[C@H](C(=O)N3CCC[C@@H]3C(=O)NCCc3ccc(C(F)(F)F)cc3)C2)C1` [Example 811, 1-(((3S)-1-((3-cyano-1-azetidinyl)sulfonyl)-3-piperidinyl)carbonyl)-N-(2-(4-(trifluoromethyl)phenyl)ethyl)-D-prolinamide], the AC1.4 amounted to 8.7795 µM.
In the case of `CS(=O)(=O)c1cccc(C(=O)N2[C@@H](C(=O)N[C@@H](c3cc(F)c(Cl)cc3F)C3(F)COC3)C[C@H]3C[C@H]32)c1` [Example 812, (1R,3R,5R)-N-((S)-(4-Chloro-2,5-difluorophenyl)(3-fluorooxetan-3-yl)methyl)-2-(3-(methylsulfonyl)benzoyl)-2-azabicyclo[3.1.0]hexane-3-carboxamide] it was 1.5766 µM; in that of `CS(=O)(=O)c1ccc(N)c(C(=O)N2[C@@H](C(=O)N[C@@H](c3ccc(C(F)(F)F)cc3F)C3CC3)C[C@H]3C[C@H]32)c1` [Example 813, (1R,3R,5R)-2-(2-amino-5-(methylsulfonyl)benzoyl)-N-((R)-cyclopropyl(2-fluoro-4-(trifluoromethyl)phenyl)methyl)-2-azabicyclo[3.1.0]hexane-3-carboxamide], 0.7101 µM; in that of `COc1cc(C(=O)N2[C@@H](C(=O)N[C@@H](c3cc(F)c(C(F)(F)F)cc3F)C3COC3)C[C@H]3C[C@H]32)ccn1` [Example 815, (1R,3R,5R)-N-((R)-(2,5-difluoro-4-(trifluoromethyl)phenyl)(oxetan-3-yl)methyl)-2-(2-methoxyisonicotinoyl)-2-azabicyclo[3.1.0]hexane-3-carboxamide], 2.4 µM.
In the case of `CS(=O)(=O)c1cncc(C(=O)N2[C@@H](C(=O)N[C@@H](c3cc(F)c(Cl)cc3F)C(F)F)C[C@H]3C[C@H]32)c1` [Example 817, (1R,3R,5R)-N-((S)-1-(4-chloro-2,5-difluorophenyl)-2,2-difluoroethyl)-2-(5-(methylsulfonyl)nicotinoyl)-2-azabicyclo[3.1.0]hexane-3-carboxamide] it was 9.115 µM; in that of `Cc1cnn(C)c1C(=O)N1[C@@H](C(=O)N[C@@H](c2cc(F)c(C(F)(F)F)cc2F)C2COC2)C[C@H]2C[C@H]21` [Example 818, (1R,3R,5R)-N-((R)-(2,5-difluoro-4-(trifluoromethyl)phenyl)(oxetan-3-yl)methyl)-2-(1,4-dimethyl-1H-pyrazole-5-carbonyl)-2-azabicyclo[3.1.0]hexane-3-carboxamide], 4.155 µM.
As to `CC(C)(O)c1cccc(C(=O)N2[C@@H](C(=O)N[C@@H](c3cc(F)c(C(F)(F)F)cc3F)C3COC3)C[C@H]3C[C@H]32)c1` [Example 819, (1R,3R,5R)-N-((R)-(2,5-difluoro-4-(trifluoromethyl)phenyl)(oxetan-3-yl)methyl)-2-(3-(2-hydroxypropan-2-yl)benzoyl)-2-azabicyclo[3.1.0]hexane-3-carboxamide], the AC1.4 came out at 1.3468 µM.
To `Cc1cc(C(=O)N2[C@@H](C(=O)N[C@@H](c3cc(F)c(C(F)(F)F)cc3F)C3COC3)C[C@H]3C[C@H]32)c2[nH]ncc2c1` [Example 820, (1R,3R,5R)-N-((R)-(2,5-difluoro-4-(trifluoromethyl)phenyl)(oxetan-3-yl)methyl)-2-(5-methyl-1H-indazole-7-carbonyl)-2-azabicyclo[3.1.0]hexane-3-carboxamide] belongs 0.9916 µM.
